Where a name gives a salt, the structure may show the parent alone.
Target: T1, recombinant IRAK-4 kinase (Homo sapiens, UniProt Q9NWZ3)
T1 construct: purchased Millipore, USA
T1 sequence (Q9NWZ3 1-460): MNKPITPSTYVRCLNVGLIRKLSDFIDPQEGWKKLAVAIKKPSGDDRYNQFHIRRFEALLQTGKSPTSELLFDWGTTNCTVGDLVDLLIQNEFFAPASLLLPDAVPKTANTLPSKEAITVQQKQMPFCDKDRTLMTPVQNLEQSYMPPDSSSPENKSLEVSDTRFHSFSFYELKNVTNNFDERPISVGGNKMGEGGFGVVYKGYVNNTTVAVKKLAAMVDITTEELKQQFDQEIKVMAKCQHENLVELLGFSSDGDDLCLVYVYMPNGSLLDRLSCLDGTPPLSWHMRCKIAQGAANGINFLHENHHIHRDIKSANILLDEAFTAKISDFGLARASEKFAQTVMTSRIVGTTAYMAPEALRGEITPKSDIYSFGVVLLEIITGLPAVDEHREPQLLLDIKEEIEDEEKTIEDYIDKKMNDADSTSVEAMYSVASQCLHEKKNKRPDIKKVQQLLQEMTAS
Assay: IRAK-4 Biochemical Assay (TR-FRET)
Conditions: 30 min pre-incubation, 100 nM Biotin Histone H3, 20 μM ATP, read-out: IC50 values for IRAK4 activity
Description: Compounds were tested for their potential to inhibit IRAK-4 enzyme in a TR-FRET assay using recombinant IRAK-4 kinase from Millipore, USA. The assay buffer was 50 mM Tris-HCl pH 7.5, 20 mM MgCl2, 1 mM EGTA, 2 mM DTT, 3 mM MnCl2 and 0.01% Tween 20.5 ng of IRAK-4 kinase was used for the assay. After pre-incubation of enzyme with test compound for 30 minutes at room temperature, a substrate mixture containing 100 nM Biotin Histone H3 (Millipore, USA) and 20 μM ATP (Sigma, USA) was added and the reaction was incubated for 30 min. Post incubation, the reaction was stopped by the addition of stop mix containing 40 mM EDTA, 1 nM of Europium-Anti-Phospho-Histone H3 (Ser10) antibody (Perkin Elmer, USA) and 20 nM SureLight Allophycocyanin-Streptavidin (Perkin Elmer, USA). The fluorescence emission at 615 nm and 665 nm were measured at an excitation of 340 nm and the percent inhibition was estimated from the ratio of the fluorescence intensities [(F665/F615)×10000]. The compounds were initially screened at 1 μM and 10 μM concentrations and potent compounds (>50% inhibition at 1 μM) were taken for dose response studies. The IC50 values were estimated by fitting the dose-response data to sigmoidal dose response (variable slope), curve fitting program using Graphpad Prism software Version 6.01.

Compound	IC50 [nM]
Cc1cc(-c2nc(C(=O)Nc3cc4cn(C)nc4cc3C3CC3)co2)ccn1 [Example 16, N-(6-cyclopropyl-2-methyl-2H-indazol-5-yl)-2-(2-methylpyridin-4-yl)oxazole-4-carboxamide hydrochloride]	< 50
Cn1cc(-c2cccc(C(=O)Nc3cc4cnn(C5CCCC5)c4cc3C3CC3)n2)cn1 [Example 17, N-(1-cyclopentyl-6-cyclopropyl-1H-indazol-5-yl)-6-(1-methyl-1H-pyrazol-4-yl)picolinamide]	> 100
Cn1cc(-c2cccc(C(=O)Nc3cc4cn(C5CCCC5)nc4cc3C3CC3)n2)cn1 [Example 18, N-(2-cyclopentyl-6-cyclopropyl-2H-indazol-5-yl)-6-(1-methyl-1H-pyrazol-4-yl)picolinamide]	< 50
Cn1cc(-c2cccc(C(=O)Nc3cc4cn(C)nc4cc3N3CCCCC3)n2)cn1 [Example 19, 6-(1-methyl-1H-pyrazol-4-yl)-N-(2-methyl-6-(piperidin-1-yl)-2H-indazol-5-yl)picolinamide]	< 50
COc1ccc(-c2nc(C(=O)Nc3cc4cn(C5CCCC5)nc4cc3C3CC3)co2)cn1 [Example 20, N-(2-cyclopentyl-6-cyclopropyl-2H-indazol-5-yl)-2-(6-methoxypyridin-3-yl)oxazole-4-carboxamide]	< 50
COc1ccc(-c2nc(C(=O)Nc3cc4cn(C)nc4cc3N3CCCCC3)co2)cn1 [Example 21, 2-(6-methoxypyridin-3-yl)-N-(2-methyl-6-(piperidin-1-yl)-2H-indazol-5-yl)oxazole-4-carboxamide]	< 50
Cc1cnccc1-c1nc(C(=O)Nc2cc3cn(C)nc3cc2N2CCCCC2)co1 [Example 22, N-(2-methyl-6-(piperidin-1-yl)-2H-indazol-5-yl)-2-(3-methylpyridin-4-yl)oxazole-4-carboxamide]	< 50
Cn1cc2cc(NC(=O)c3cccc(Br)n3)c(N3CCCCC3)cc2n1 [Example 23, 6-bromo-N-(2-methyl-6-(piperidin-1-yl)-2H-indazol-5-yl)picolinamide]	< 50
Cc1ccc(C(=O)Nc2cc3cn(C)nc3cc2N2CCCCC2)nc1Cl [Example 24, 6-chloro-5-methyl-N-(2-methyl-6-(piperidin-1-yl)-2H-indazol-5-yl)picolinamide]	< 50
Cc1ccc(-c2nc(C(=O)Nc3cc4cn(C)nc4cc3N3CCCCC3)co2)cn1 [Example 25, N-(2-methyl-6-(piperidin-1-yl)-2H-indazol-5-yl)-2-(6-methylpyridin-3-yl)oxazole-4-carboxamide]	< 50
Cc1ncccc1-c1nc(C(=O)Nc2cc3cn(C4CCCC4)nc3cc2C2CC2)co1 [Example 26, N-(2-cyclopentyl-6-cyclopropyl-2H-indazol-5-yl)-2-(2-methylpyridin-3-yl)oxazole-4-carboxamide]	< 50
Cc1cnccc1-c1nc(C(=O)Nc2cc3cn(C4CCCC4)nc3cc2C2CC2)co1 [Example 27, N-(2-cyclopentyl-6-cyclopropyl-2H-indazol-5-yl)-2-(3-methylpyridin-4-yl)oxazole-4-carboxamide]	< 50
Cc1ccc(-c2nc(C(=O)Nc3cc4cn(C5CCCC5)nc4cc3C3CC3)co2)cn1 [Example 28, N-(2-cyclopentyl-6-cyclopropyl-2H-indazol-5-yl)-2-(6-methylpyridin-3-yl)oxazole-4-carboxamide]	< 50

Other lines, results leading:

IC50 [nM]	Compound
< 50	Cn1cc2cc(NC(=O)c3cccc(-c4cn[nH]c4)n3)c(N3CCCCC3)cc2n1 [Example 1, N-(2-methyl-6-(piperidin-1-yl)-2H-indazol-5-yl)-6-(1H-pyrazol-4-yl) picolinamide]
< 50	Cc1cc(-c2nc(C(=O)Nc3cc4cn(C)nc4cc3N3CCCCC3)co2)ccn1 [Example 2, N-(2-methyl-6-(piperidin-1-yl)-2H-indazol-5-yl)-2-(2-methylpyridin-4-yl) oxazole-4-carboxamide]
< 50	Cc1cc(-c2nc(C(=O)Nc3cc4cnn(C)c4cc3N3CCCCC3)co2)ccn1 [Example 3, N-(1-methyl-6-(piperidin-1-yl)-1H-indazol-5-yl)-2-(2-methylpyridin-4-yl) oxazole-4-carboxamide]
< 50	Cc1cc(-c2nc(C(=O)Nc3cc4cn(C5CCCC5)nc4cc3N3CCCCC3)co2)ccn1 [Example 4, N-(2-cyclopentyl-6-(piperidin-1-yl)-2H-indazol-5-yl)-2-(2-methylpyridin-4-yl) oxazole-4-carboxamide]
< 50	Cc1cc(-c2nc(C(=O)Nc3cc4cn(C5CCCC5)nc4cc3C#N)co2)ccn1 [Example 5, N-(6-cyano-2-cyclopentyl-2H-indazol-5-yl)-2-(2-methylpyridin-4-yl) oxazole-4-carboxamide]
< 50	Cc1cc(-c2nc(C(=O)Nc3cc4cn(C5CCCC5)nc4cc3C3CC3)co2)ccn1 [Example 6, N-(2-cyclopentyl-6-cyclopropyl-2H-indazol-5-yl)-2-(2-methylpyridin-4-yl) oxazole-4-carboxamide]
< 50	O=C(Nc1cc2cn(C3CCCC3)nc2cc1C1CC1)c1cccc(-c2cn[nH]c2)n1 [Example 7, N-(2-cyclopentyl-6-cyclopropyl-2H-indazol-5-yl)-6-(1H-pyrazol-4-yl) picolinamide]
< 50	Cc1cc(-c2nc(C(=O)Nc3cc4cn(C5CCCC5)nc4cc3N3CCOCC3)co2)ccn1 [Example 8, N-(2-cyclopentyl-6-morpholino-2H-indazol-5-yl)-2-(2-methylpyridin-4-yl) oxazole-4-carboxamide]
< 50	Nc1ccc(-c2cccc(C(=O)Nc3cc4cn(C5CCCC5)nc4cc3N3CCOCC3)n2)cn1 [Example 9, 6′-amino-N-(2-cyclopentyl-6-morpholino-2H-indazol-5-yl)-[2,3′-bipyridine]-6-carboxamide 2,2,2-trifluoroacetate]
< 50	Cc1cc(-c2nc(C(=O)Nc3cc4cn(C)nc4cc3-c3cccc(F)c3)co2)ccn1 [Example 10, N-(6-(3-fluorophenyl)-2-methyl-2H-indazol-5-yl)-2-(2-methylpyridin-4-yl)oxazole-4-carboxamide]
< 50	Cc1cc(-c2nc(C(=O)Nc3cc4cn(C)nc4cc3C3CCCCC3)co2)ccn1 [Example 11, N-(6-cyclohexyl-2-methyl-2H-indazol-5-yl)-2-(2-methylpyridin-4-yl)oxazole-4-carboxamide hydrochloride]
< 50	Cn1cc2cc(NC(=O)c3cccc(-c4ccc(F)nc4)n3)c(N3CCCCC3)cc2n1 [Example 12, 6′-fluoro-N-(2-methyl-6-(piperidin-1-yl)-2H-indazol-5-yl)-[2,3′-bipyridine]-6-carboxamide hydrochloride]
< 50	Cn1cc2cc(NC(=O)c3cccc(-c4cn[nH]c4)n3)c(C3CCCCC3)cc2n1 [Example 13, N-(6-cyclohexyl-2-methyl-2H-indazol-5-yl)-6-(1H-pyrazol-4-yl)picolinamide hydrochloride]
< 50	Cn1cc2cc(NC(=O)c3cccc(-c4cccnc4F)n3)c(N3CCCCC3)cc2n1 [Example 14, 2′-fluoro-N-(2-methyl-6-(piperidin-1-yl)-2H-indazol-5-yl)-[2,3′-bipyridine]-6-carboxamide]
< 50	Cn1cc2cc(NC(=O)c3coc(-c4ccnc(Cl)c4)n3)c(N3CCCCC3)cc2n1 [Example 15, 2-(2-chloropyridin-4-yl)-N-(2-methyl-6-(piperidin-1-yl)-2H-indazol-5-yl)oxazole-4-carboxamide hydrochloride]
